In US20070232532A1, “Use of cyclosporin alkene analogues for preventing or treating viral-induced disorders” (priority 2006, published 2007):
≈ marks a conversion by molar mass, not a printed value.

Tests used:
[1] = test system: concanavalin A-stimulated splenocytes; assay: Concanavalin A-stimulated splenocyte assay; assay type: cell-based, BALB/c mice; settings: for IC50: immunosuppressive activity, ConA-stimulated murine splenocytes, [3H]thymidine incorporation, 7 point curves
Method: Concanavalin A-Stimulated Splenocyte Assay
Male BALB/c mice, at 5 to 7 weeks of age, were sacrificed by CO2 inhalation. Spleens were removed and dissociated by pushing through a nylon cell strainer. The splenocytes were washed in RPMI 1640/5% fetal calf serum (FCS) and pelleted at 400×g. Red blood cells were then lysed by resuspending the cell pellet in ACK lysis buffer (150 mM NH4Cl, 1 mM KHCO3, 0.1 mM EDTA, 3 mL per spleen) for 10 min at room temperature. After pelleting at 400×g, the cells were washed by resuspending in RPMI 1640/5% FCS and repelleting. The cell pellet was resuspended in RPMI 1640/5% FCS and again passed through a cell strainer to remove cell aggregates. The cells were then counted and adjusted to 2×10^6 cells/ml in RPMI 1640/10% FCS/50 μM 2-mercaptoethanol. Cell viability was assessed by Trypan blue staining. […] The cells were cultured in a 37° C. CO2 incubator for 2 days and then pulsed with 1 μCi of [^3H]thymidine for 6 hours. Cells were harvested onto filtermats with a TomTec 96 well plate harvester and lysed with H2O. The filtermat and scintillation fluid were sealed in a plastic sleeve. [^3H]thymidine incorporation was measured with a Wallac Trilux plate counter. Initial screens were done at a fixed value of 100 ng/ml test compound. IC50s were calculated from 7 point concentration-response curves using GraphPad software.

[2] = test system: HIV-1; settings: literature report; cited from earlier work
[3] = test system: calcineurin; settings: cited from earlier work
[4] = test system: immunosuppressive activity; settings: Mlynar et al. 1997; cited from earlier work
[5] = test system: hepatitis C virus replication; settings: Paeshuyse et al. 2005; cited from earlier work
[6] = target: cyclophilin A (Homo sapiens, UniProt P62937); settings: cited from earlier work
Chain of cyclophilin A (P62937 whole entry): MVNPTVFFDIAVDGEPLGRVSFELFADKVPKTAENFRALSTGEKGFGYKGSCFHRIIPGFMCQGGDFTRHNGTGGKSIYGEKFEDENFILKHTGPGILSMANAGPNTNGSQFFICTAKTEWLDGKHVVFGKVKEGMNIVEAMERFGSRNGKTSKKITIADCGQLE

Row | Compound | IC50 [1] [ng/mL] | further results
1 | CC[C@@H]1NC(=O)[C@H]([C@H](O)[C@H](C)C/C=C/Br)N(C)C(=O)[C@H](C(C)C)N(C)C(=O)[C@H](CC(C)C)N(C)C(=O)[C@H](CC(C)C)N(C)C(=O)[C@@H](C)NC(=O)[C@H](C)NC(=O)[C@H](CC(C)C)N(C)C(=O)[C@H](C(C)C)NC(=O)[C@H](CC(C)C)N(C)C(=O)CN(C)C1=O (relative stereo) [Example 19, trans-cyclosporin vinyl bromide] | 9 | –
2 | C=C/C=C/C[C@@H](C)[C@@H](O)[C@H]1C(=O)N[C@@H](CC)C(=O)N(C)[C@H](CO)C(=O)N(C)[C@@H](CC(C)C)C(=O)N[C@@H](C(C)C)C(=O)N(C)[C@@H](CC(C)C)C(=O)N[C@@H](C)C(=O)N[C@H](C)C(=O)N(C)[C@@H](CC(C)C)C(=O)N(C)[C@@H](CC(C)C)C(=O)N(C)[C@@H](C(C)C)C(=O)N1C (relative stereo) [Example 67, trans-cyclosporin diene] | 7 (≈ 5.62 nM) | –
3 | CC[C@@H]1NC(=O)[C@H]([C@H](O)[C@H](C)CC=CCF)N(C)C(=O)[C@H](C(C)C)N(C)C(=O)[C@H](CC(C)C)N(C)C(=O)[C@H](CC(C)C)N(C)C(=O)[C@@H](C)NC(=O)[C@H](C)NC(=O)[C@H](CC(C)C)N(C)C(=O)[C@H](C(C)C)NC(=O)[C@H](CC(C)C)N(C)C(=O)CN(C)C1=O [Example 34, cyclosporin allylic fluoride] | 12 (≈ 9.83 nM) | –
4 | cyclosporin vinyl iodide [Example 6] | 11 | –
5 | CC[C@@H]1NC(=O)[C@H]([C@H](O)[C@H](C)CC=CC(F)(F)F)N(C)C(=O)[C@H](C(C)C)N(C)C(=O)[C@H](CC(C)C)N(C)C(=O)[C@H](CC(C)C)N(C)C(=O)[C@@H](C)NC(=O)[C@H](C)NC(=O)[C@H](CC(C)C)N(C)C(=O)[C@H](C(C)C)NC(=O)[C@H](CC(C)C)N(C)C(=O)CN(C)C1=O [Example 31, cyclosporin fluoride] | 38 (≈ 30.2 nM) | –
6 | trans-deuterated cyclosporin vinyl iodide [Example 9] | 7 | potency in immunosuppression compared to cyclosporin A ([1]; FIG. 1, ConA-stimulated splenocyte assay): enhanced potency
7 | C/C=C/C[C@@H](C)[C@@H](O)[C@H]1C(=O)N[C@@H](CC)C(=O)N(C)CC(=O)N(C)[C@@H]([C@@H](C)CC)C(=O)N[C@@H](C(C)C)C(=O)N(C)[C@@H](CC(C)C)C(=O)N[C@@H](C)C(=O)N[C@H](C)C(=O)N(C)[C@@H](CC(C)C)C(=O)N(C)[C@@H](CC(C)C)C(=O)N(C)[C@@H](C(C)C)C(=O)N1C [SDZ NIM 811] | – | anti-HIV-1 activity [2]: potent and selective anti-HIV-1 activity; inhibition of calcineurin [3]: does not inhibit calcineurin; immunosuppressive activity [4]: completely devoid of immunosuppressive activity
8 | C/C=C/C[C@@H](C)[C@@H](O)[C@H]1C(=O)N[C@@H](CC)C(=O)N(C)[C@H](C)C(=O)N(CC)[C@@H](C(C)C)C(=O)N[C@@H](C(C)C)C(=O)N(C)[C@@H](CC(C)C)C(=O)N[C@@H](C)C(=O)N[C@H](C)C(=O)N(C)[C@@H](CC(C)C)C(=O)N(C)[C@@H](CC(C)C)C(=O)N(C)[C@@H](C(C)C)C(=O)N1C [DEBIO-025] | – | inhibition of hepatitis C virus replication [5]: potent and selective inhibition of hepatitis C virus replication; binding affinity for cyclophilin A [6]: potent binding affinity
9 | trans-cyclosporin diene-d2 [Example 69] | 4 | –
